Experimental data: US20040253289A1, “Natural plant compound with anti-HIV activity” (MIKONIK TECHNOLOGIES, LTD., priority 2004, published 2004)

Tests used:
[1] = test system: human immunodeficiency virus; conditions: cited from earlier work; for inhibition of viral replication: in vitro
[2] = test system: HIV-1zmb high/rapid strain; assay: Indirect immunofluorescence (IF), HIV-specific antigens on infected cells; format: cell-based; conditions: 3rd day after infecting
Text: (§1) In all experiments the suspensional T-lymphoblastoid cell line MT-4 was used. Passages have been carried out every three days for achieving the initial cell concentration at about 4-5·10^5 cells ml^−1.
(§2) HIV-1zmb high/rapid strain with the titer more than 6.0 log TCID50 isolated in Belarus has been used in the tests.
(§3) The tests have been carried out under therapeutic circuit when the testing compound and virus were put into the cell culture simultaneously.
The indirect immunofluorescence assay is a useful means for determining the number of cells productively infected with HIV [Johnson V. A., Byington R. E. HIV indirect immunofluorescence assay. In “Techniques in HIV Research”: Stockton Press, 1990. P. 87-91]. This assay is quantitative and can be done using living cells. The technique gives the possibility to determine HIV-specific antigens expressed on cell surface membranes of the virus-infected cells. On the 3rd day after infecting, cells have been transferred onto wells of the laminated multiwell slides and fixed by cold (4° C.) acetone. Then the samples with fixed cells were treated by HIV-1-seropositive serum and then by FTC-conjugated sheep anti-human IgG. The resulting effect was estimated via evaluation of percentage of positive cells that was calculated using fluorescent microscope and taking into account 200 cells. […]

[3] = test system: HIV-1zmb high/rapid strain; assay: In vitro anti-HIV activity in infected cell culture (overall, three tests); format: cell-based
Text: as §1, §2, §3

mice = conditions: acute toxicity; cited from earlier work
rats = conditions: acute toxicity; cited from earlier work
[4] = prolonged and chronic experiments; cited from earlier work
Siberian sturgeon fry = Siberian sturgeon fry treated with solution; cited from earlier work

## C[C@H](CCCC(C)(C)O)[C@H]1CC[C@H]2[C@@H]3[C@@H](O)C=C4C[C@@H](O)CC[C@]4(C)[C@H]3CC[C@]12C [7β,25-dihydroxycholesterol]
[1]; HIV replication in vitro
  antiviral concentration, fold lower than the highest concentration tested at which no toxicity was measurable: 13- to 25 fold
[1]
  inhibition of viral replication: inhibited viral replication at micromolar concentrations

## CC(C)CCC[C@@H](C)[C@H]1CC[C@H]2[C@@H]3[C@@H](O)C=C4C[C@@H](O)CC[C@]4(C)[C@H]3CC[C@]12C [7β-hydroxycholesterol]
[1]
  inhibition of viral replication: inhibited viral replication at micromolar concentrations

## CC(C)[C@@H](C)[C@@H](O)[C@H](O)[C@@H](C)[C@H]1CC[C@H]2[C@@H]3COC(=O)[C@H]4C[C@H](O)[C@H](O)C[C@]4(C)[C@H]3CC[C@]12C [24-epibrassinolide]
[2]
  production of viral-specific antigens on the cell's surface: significantly decreased production of viral-specific antigens
[3]; 4-5th days after infecting
  amount of the living cells in the infected culture, higher in comparison with untreated control: more than 50%
[3]; each test done in three repetitions, listed as EBI
  average efficient concentration as anti-HIV agent in vitro: 10 ng/mL
mice
  LD50: more than 1000 mg·kg^−1
rats
  LD50: more than 2000 mg·kg^−1
[4]
  postponed negative effects: no postponed negative effects
Siberian sturgeon fry
  increase of bacteriolytic activity of lysozyme in comparison with the control fish: up to 50%
  γ-globulin level higher than in the control: 10 to 65%

## C[C@H](CCCC(C)(C)O)[C@H]1CC[C@H]2[C@@H]3CC=C4C[C@@H](O)CC[C@]4(C)[C@H]3CC[C@]12C [25-hydroxycholesterol]
[1]
  inhibition of viral replication: inhibited viral replication at micromolar concentrations
